The solubility is the dissolved amount per volume that the medium holds.

In brackets after ≈: the same amount, converted by molar mass.

Results on one compound are retold here after patent publication US20250388564A1, “METHODS OF MANUFACTURING PYRIDAZINONE COMPOUNDS” (Edgewise Therapeutics, Inc., priority 2022, published 2025).

This data set is described as follows: Solubility of Compound IX in solvents (Table 1). Format: physicochemical. The note with it: for solubility: organic solvent or mixture.

Turning to `O=c1ccc(-c2cnc(OCC(F)(F)F)nc2)n[nH]1` [Compound IX, 6-[2-(2,2,2-trifluoroethoxy)pyrimidin-5-yl]-2,3-dihydropyridazin-3-one], the solubility (1,4-dioxane, solvent 1,4-dioxane (entry 8)) was found to be 2900 µg/mL (≈ 10.7 mM); the solubility (ACN, solvent ACN (entry 6)) came to 1500 µg/mL (≈ 5.51 mM); the solubility (DCE, solvent DCE (entry 1)) was determined as 150 µg/mL (≈ 0.551 mM); the solubility (DCM, solvent DCM (entry 17)) was 300 µg/mL (≈ 1.1 mM); the solubility (DMA, solvent DMA (entry 19)) came out at 13000 µg/mL (≈ 47.8 mM); the solubility (DME, solvent DME (entry 4)) amounted to 3260 µg/mL (≈ 12 mM). Moreover, the solubility stood at 10000 µg/mL (≈ 36.7 mM) (DME, solvent DME (entry 21)); 21000 µg/mL (≈ 77.2 mM) (DMF, solvent DMF (entry 18)); 45000 µg/mL (≈ 165 mM) (DMSO, solvent DMSO (entry 10)); 700 µg/mL (≈ 2.57 mM) (EA, solvent EA (entry 16)); 1000 µg/mL (≈ 3.67 mM) (EtOH, solvent EtOH (entry 12)); 100 µg/mL (≈ 0.367 mM) (MTBE, solvent MTBE (entry 15)). Also, the solubility reads like this: (MeOH, solvent MeOH (entry 11)) 2500 µg/mL (≈ 9.18 mM); (NMP, solvent NMP (entry 20)) 44000 µg/mL (≈ 162 mM); (THF, solvent THF (entry 5)) 2730 µg/mL (≈ 10 mM); (acetone, solvent Acetone (entry 2)) 1590 µg/mL (≈ 5.84 mM); (i-PrOH, solvent i-PrOH (entry 13)) 500 µg/mL (≈ 1.84 mM); (t-BuOH, solvent t-BuOH (entry 14)) 100 µg/mL (≈ 0.367 mM). For the same compound, the solubility (thietane 1,1-dioxide, solvent thietane 1,1-dioxide (entry 3)) was 6350 µg/mL (≈ 23.3 mM). Also, the “solubility (in words)” value (overall statement on Table 1) is “limited solubility”.
